Source: patent publication US20250099491A1, “PREVENTION OR TREATMENT OF CARDIOVASCULAR DISEASES WITH HIGH PENETRATION PRODRUGS OF ASPIRIN AND OTHER NSAIDS” (Techfields Inc., priority 2022, published 2025)

Test system: patients with ischemic strokes
Assay: Phase 2 clinical study of spray in patients with ischemic strokes
Format: in vivo, human
Details: for LCCA (far-wall): Maximal IMT of left common carotid artery / LCCA (near-wall): Maximal IMT of left common carotid artery / LICA (far-wall): Maximal IMT of left internal carotid artery / LICA (near-wall): Maximal IMT of left internal carotid artery / RCCA (far-wall): Maximal IMT of right common carotid artery / RCCA (near-wall): Maximal IMT of right common carotid artery / RICA (far-wall): Maximal IMT of right internal carotid artery / RICA (near-wall): Maximal IMT of right internal carotid artery: ultrasonography
Method: Each patient enrolled in Group A was administered the investigational drug in a double-blind manner for 16 weeks starting between 3 and 60 days after the onset of stroke symptoms (Day 1 of the study). The patients and/or their caregivers were instructed how to apply the investigational drug accurately so that patients or their caregivers would administer 20 sprays/dose of either the investigational drug or placebo twice daily (approximately every 12 hours) for a total daily dose of 280 mg of investigational drug. The 20 sprays of investigational drug were administered as follows: 4 sprays around the neck, 2 sprays to the left shoulder, 2 sprays to the right shoulder, 6 sprays to the chest, 3 sprays to the left leg, and 3 sprays to the right leg. Each spray was sprayed on a different area of the skin to reach maximum absorption. The patient would wait for at least 5 minutes to dress after the last spray so that the skin became completely dry.
Patients were asked to return to the study site at Weeks 4, 8, 12, and 16 for efficacy and safety assessments. After the Week 16 assessments had been performed, patients would start the open-label period of the study the next day and receive active treatment in an open-label manner through the end of the study (EOS) at Week 32. That is, patients who were receiving active treatment would continue to receive active treatment, and patients who were receiving placebo would switch to active treatment for the remaining 16 weeks of the study. Patients would receive only 1 dose of investigational drug on the Week 16 visit day. Patients would return to the study site at Week 24 and Week 32 (EOS) for efficacy and safety assessments. An Early Termination visit would occur if the patient was discontinued from the study prematurely. Patients would have a follow-up visit approximately 14 days after the Early Termination visit or the Week 32 (EOS) visit.
The spray bottle deposits […] of spray solution and 7 mg 2-(diethylamino)ethyl acetoxybenzoate free base per spray on the skin. Subjects were to apply each spray to a different skin area around the neck, chest, legs and arms based on the randomized dose level assigned.
The treatment was administered twice daily (approximately every 12 hours) starting on Day 1 of the study through the Week 16 visit. Each spray was sprayed on a different area of the skin to reach maximum absorption.
Group A administered the 20 sprays of investigational drug as follows: 4 sprays around the neck, 2 sprays to the left shoulder, 2 sprays to the right shoulder, 6 sprays to the chest, 3 sprays to the left leg, and 3 sprays to the right leg twice daily for a total of 40 sprays (280 mg)/day. Each spray was sprayed on a different area of the skin to reach maximum absorption.
(§1) Group B administered the investigational drug as follows: 2 sprays to the front of the neck, 1 spray to the left side of the neck, 1 spray to the right side of the neck, 6 sprays to the chest close to the neck twice daily for a total of 20 sprays (140 mg)/day. Each spray was sprayed on a different area of the skin to reach maximum absorption.
as §1, with “C” for “B”, “1 spray” for “2 sprays”, “2” for “6”, “chest” for “chest close to the neck”, “10” for “20”, “(70 mg/day).” for “(140 mg)/day.”
The primary efficacy endpoint is the mRS score at Week 16 dichotomized as ‘success’ (0 to 2) or failure (>2) for all randomized patients at Week 16.
The mRS score was assessed at screening; Day 1 (baseline); Weeks 4, 8, 12, 16, 24, and 32; Early Termination Visit (if applicable) and Follow-Up Visit.
The mRS score measures the patient's functional level of activity and is dichotomized as a favorable outcome (score=0-2) versus unfavorable (score […]). […]

[1] = 5 Sprays (35 mg/dose bid), Baseline
[2] = 5 Sprays (35 mg/dose bid), Week 4
[3] = 5 Sprays (35 mg/dose bid), Week 8
[4] = 5 Sprays (35 mg/dose bid), Week 16
[5] = 5 Sprays (35 mg/dose bid), Week 24
[6] = 5 Sprays (35 mg/dose bid), Week 32
[7] = 5 Sprays (35 mg/dose bid), baseline
[8] = 10 Sprays (70 mg/dose bid), Baseline
[9] = 10 Sprays (70 mg/dose bid), Week 4
[10] = 10 Sprays (70 mg/dose bid), Week 8
[11] = 10 Sprays (70 mg/dose bid), Week 16

With `CCN(CC)CCOC(=O)c1ccccc1OC(C)=O.Cl` [Compound-1] the safety and tolerability (35 mg, 70 mg, and 140 mg BID, topical spray) was “safe and were generally well tolerated”, the “LCCA (far-wall): Maximal IMT of left common carotid artery” value (“LCCA (far-wall): Maximal IMT” below) [1] was 6.2 ± 1.6 mm and the “LCCA (near-wall): Maximal IMT of left common carotid artery” value (from here on “LCCA (near-wall): Maximal IMT”) [1] was 7.3 ± 2.0 mm. For the same molecule, the “LICA (far-wall): Maximal IMT of left internal carotid artery” value (“LICA (far-wall): Maximal IMT” below) [1] was 5.3 ± 1.3 mm, the “LICA (near-wall): Maximal IMT of left internal carotid artery” value (from here on “LICA (near-wall): Maximal IMT”) [1] was 6.3 ± 2.1 mm and the “RCCA (far-wall): Maximal IMT of right common carotid artery” value (“RCCA (far-wall): Maximal IMT” below) [1] was 7.1 ± 2.2 mm. The “RCCA (near-wall): Maximal IMT of right common carotid artery” value (from here on “RCCA (near-wall): Maximal IMT”) [1] was 6.9 ± 2.1 mm, the “RICA (far-wall): Maximal IMT of right internal carotid artery” value (“RICA (far-wall): Maximal IMT” below) [1] was 4.1 ± 1.4 mm and the “RICA (near-wall): Maximal IMT of right internal carotid artery” value (from here on “RICA (near-wall): Maximal IMT”) [1] was 4.7 ± 1.5 mm. For the same molecule, the “Modified Rankin Scale Score (mRS)” value [2] was 3.1 ± 0.5, the “National Institute of Health Stroke Scale” value (from here on “National Institute”) [2] was 5.5 ± 1.7 and the “Modified Rankin Scale Score (mRS)” value [3] was 2.9 ± 0.3. The “National Institute” value [3] was 5.3 ± 1.5, the “Modified Rankin Scale Score (mRS)” value [4] was 2.7 ± 0.5 and the “National Institute” value [4] was 4.1 ± 1.0. For the same molecule, the “LCCA (far-wall): Maximal IMT” value [4] was 2.7 ± 1.4 mm, the “LCCA (near-wall): Maximal IMT” value [4] was 2.3 ± 1.3 mm and the “LICA (far-wall): Maximal IMT” value [4] was 1.5 ± 1.1 mm. For the same molecule, the “LICA (near-wall): Maximal IMT” value [4] was 1.6 ± 1.3 mm, the “RCCA (far-wall): Maximal IMT” value [4] was 2.5 ± 1.1 mm and the “RCCA (near-wall): Maximal IMT” value [4] was 2.1 ± 0.9 mm. The “RICA (far-wall): Maximal IMT” value [4] was 1.6 ± 0.9 mm, the “RICA (near-wall): Maximal IMT” value [4] was 1.5 ± 1.2 mm and the “Modified Rankin Scale Score (mRS)” value [5] was 2.5 ± 0.5. The “National Institute” value [5] was 3.4 ± 0.8, the “Modified Rankin Scale Score (mRS)” value [6] was 2.4 ± 0.5 and the “National Institute” value [6] was 2.9 ± 0.6. The “LCCA (far-wall): Maximal IMT” value [6] was 2.5 ± 0.7 mm, the “LCCA (near-wall): Maximal IMT” value [6] was 2.1 ± 0.7 mm and the “LICA (far-wall): Maximal IMT” value [6] was 1.3 ± 0.7 mm. The “LICA (near-wall): Maximal IMT” value [6] was 1.2 ± 1.0 mm, the “RCCA (far-wall): Maximal IMT” value [6] was 2.6 ± 0.9 mm and the “RCCA (near-wall): Maximal IMT” value [6] was 2.3 ± 0.8 mm. For the same molecule, the “RICA (far-wall): Maximal IMT” value [6] was 1.1 ± 0.7 mm, the “RICA (near-wall): Maximal IMT” value [6] was 1.2 ± 0.6 mm and the “Modified Rankin Scale Score (mRS)” value [7] was 3.5 ± 0.5. For the same molecule, the “National Institute” value [7] was 6.0 ± 2.2, the “LCCA (far-wall): Maximal IMT” value [8] was 7.1 ± 1.7 mm and the “LCCA (near-wall): Maximal IMT” value [8] was 7.0 ± 1.5 mm. The “LICA (far-wall): Maximal IMT” value [8] was 5.8 ± 1.5 mm, the “LICA (near-wall): Maximal IMT” value [8] was 6.1 ± 1.3 mm and the “RCCA (far-wall): Maximal IMT” value [8] was 7.9 ± 2.1 mm. For the same molecule, the “RCCA (near-wall): Maximal IMT” value [8] was 7.2 ± 1.7 mm, the “RICA (far-wall): Maximal IMT” value [8] was 4.3 ± 1.5 mm and the “RICA (near-wall): Maximal IMT” value [8] was 5.1 ± 1.2 mm. For the same molecule, the “Modified Rankin Scale Score (mRS)” value [9] was 2.5 ± 0.5, the “National Institute” value [9] was 4.9 ± 1.5 and the “Modified Rankin Scale Score (mRS)” value [10] was 2.0 ± 0.5. The “National Institute” value [10] was 3.7 ± 1.1, the “Modified Rankin Scale Score (mRS)” value [11] was 1.6 ± 0.5 and the “National Institute” value [11] was 2.3 ± 0.8. For the same molecule, the “LCCA (far-wall): Maximal IMT” value [11] was 1.8 ± 0.7 mm, the “LCCA (near-wall): Maximal IMT” value [11] was 1.3 ± 0.7 mm and the “LICA (far-wall): Maximal IMT” value [11] was 0.7 ± 0.3 mm. The “LICA (near-wall): Maximal IMT” value [11] was 0.9 ± 0.5 mm, the “RCCA (far-wall): Maximal IMT” value [11] was 1.5 ± 0.6 mm and the “RCCA (near-wall): Maximal IMT” value [11] was 1.6 ± 0.8 mm. The “RICA (far-wall): Maximal IMT” value [11] was 0.8 ± 0.3 mm.
